According to the supplement of paper PMC10307832:

Columns and labels:
Test in all cases: relative viability (nuclei count vs DMSO), 5 days (fraction); higher = more cells survive
[1] = compound: COC1=CC(c2cc3ccccc3[nH]2)=N/C1=C\c1[nH]c(C)cc1C [Obatoclax] + C[C@]1(O)C[C@@H](c2nc(-c3ccc4ccc(-c5ccccc5)nc4c3)c3c(N)nccn32)C1 [Linsitinib] (partner 1 µM)
In short: (§1)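 A single step with final 0.05% Triton X-100, 1% formaldehyde and 1 ug/ml Hoechst fixed the cells and stained nuclei 5 days after treatment. Lung cancer cell lines in 1536-well plates had been treated by pin tool the day after seeding with one drug alone or a fixed anchor-drug dose plus five library-drug doses (not always all listed) in √10 steps, and nuclei were counted on 4× images. Relative viability is the ratio of nuclei in treated wells to nuclei in vehicle wells, taken as the median of duplicate plates.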

[2] = compound: CC(C)C[C@H](NC(=O)[C@H](Cc1ccccc1)NC(=O)c1cnccn1)B(O)O [Bortezomib] + C[C@@H](Oc1cc(-c2cnn(C3CCNCC3)c2)cnc1N)c1c(Cl)ccc(F)c1Cl [Crizotinib] (partner 1 µM)
In short: as §1

[3] = compound: CC(C)C[C@H](NC(=O)[C@H](Cc1ccccc1)NC(=O)c1cnccn1)B(O)O [Bortezomib] + C[C@]1(O)C[C@@H](c2nc(-c3ccc4ccc(-c5ccccc5)nc4c3)c3c(N)nccn32)C1 [Linsitinib] (partner 1 µM)
In short: as §1

[4] = compound: COC1=CC(c2cc3ccccc3[nH]2)=N/C1=C\c1[nH]c(C)cc1C [Obatoclax] + O=C(c1cc(Cc2n[nH]c(=O)c3ccccc23)ccc1F)N1CCN(C(=O)C2CC2)CC1 [Olaparib] (partner 8 µM)
In short: as §1

Row | Cell Line | relative viability ([1]; first compound 0.01 µM) | relative viability ([1]; first compound 0.03162 µM) | relative viability ([1]; first compound 0.1 µM) | relative viability ([1]; first compound 0.3162 µM) | relative viability ([1]; first compound 1 µM) | relative viability ([2]; first compound 0.0002 µM) | relative viability ([2]; first compound 0.000632 µM) | relative viability ([2]; first compound 0.002 µM) | relative viability ([2]; first compound 0.006325 µM) | relative viability ([2]; first compound 0.02 µM) | relative viability ([3]; first compound 0.0002 µM) | relative viability ([3]; first compound 0.000632 µM) | relative viability ([3]; first compound 0.002 µM) | relative viability ([3]; first compound 0.006325 µM) | relative viability ([3]; first compound 0.02 µM) | relative viability ([4]; first compound 0.01 µM) | relative viability ([4]; first compound 0.1 µM) | relative viability ([4]; first compound 0.3162 µM) | relative viability ([4]; first compound 1 µM) | relative viability ([4]; first compound 0.03162 µM)
1 | EKVX | 0.978 | 0.923 | 1.07 | 0.907 | 0.876 | 0.942 | 0.894 | 0.822 | 0.268 | 0.106 | 1.01 | 0.936 | 0.915 | 0.609 | 0.0808 | 0.842 | 0.966 | 0.888 | 0.648 | 
2 | RERF-LC-KJ | 0.884 | 0.947 | 0.871 | 0.868 | 0.808 | 0.846 | 0.85 | 0.84 | 0.271 | 0.178 | 0.859 |  | 0.908 | 0.366 | 0.203 | 0.897 | 0.897 | 0.863 | 0.33 | 0.903
3 | NCI-H1755 | 0.986 | 0.996 | 0.96 | 0.991 | 1.03 | 0.866 | 0.828 | 0.877 | 0.196 | 0.156 | 1.01 | 0.955 | 1 | 0.323 | 0.149 | 0.873 | 0.868 | 0.787 | 0.839 | 0.901
4 | NCI-H661 | 0.598 | 0.564 | 0.66 | 0.529 | 0.735 | 1.1 | 1.03 | 1.16 | 0.82 | 0.269 | 0.62 | 0.552 | 0.46 | 0.311 | 0.181 | 0.741 | 0.729 | 0.676 | 0.516 | 0.729
5 | LOU-NH91 | 0.949 | 0.865 | 0.792 | 0.833 | 0.761 | 0.749 | 0.708 | 0.342 | 0.314 | 0.319 | 0.995 | 0.86 | 0.383 | 0.285 | 0.294 | 0.921 | 0.834 | 0.857 | 0.398 | 0.919
6 | LXF-289 | 0.903 | 0.969 | 0.961 | 0.93 | 0.994 | 0.809 | 0.795 | 0.896 | 0.0729 | 0.0698 | 0.946 | 0.968 | 1 | 0.0941 | 0.0652 | 1.05 | 0.972 | 1.09 | 1 | 1.1
7 | HCC-44 | 0.688 | 0.628 | 0.688 | 0.555 | 0.63 | 0.816 | 0.842 | 0.839 | 0.116 | 0.153 | 0.618 | 0.61 | 0.515 | 0.19 | 0.113 | 0.965 | 0.966 | 0.969 | 0.94 | 0.988
8 | HARA | 0.923 | 0.316 | 1.03 | 0.703 | 0.919 | 0.961 | 0.966 | 0.789 | 0.0536 | 0.067 | 0.899 | 0.836 | 0.895 | 0.0675 | 0.0867 | 0.639 | 1.03 | 0.99 | 0.89 | 0.962
